Results published in ChEMBL document CHEMBL1201862, “PubChem BioAssay data set” (2004).
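Results reflect a 48-hour exposure of cells in 96-well plates to compound at five concentrations. GI50 is the concentration that inhibits growth by half.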 Activity calls are given as the source filed them. Rule as the data show it: active = GI50 up to about 1.1 µM and inactive = higher.

Columns and labels:
Test in all cases: inhibition of tumour cell growth, NCI panel, 48 h
M14 = tested on: M14
IGROV-1 = tested on: IGROV-1
HOP-62 = tested on: HOP-62
EKVX = tested on: EKVX
A549 = tested on: A549
BT-549 = tested on: BT-549
SK-OV-3 = tested on: SK-OV-3
T47D = tested on: T47D
NCI-H226 = tested on: NCI-H226
COLO 205 = tested on: COLO 205
OVCAR-3 = tested on: OVCAR-3
HL-60 = tested on: HL-60
TK-10 = tested on: TK-10
SR = tested on: SR
MDA-N = tested on: MDA-N
UO-31 = tested on: UO-31
UACC-62 = tested on: UACC-62
MDA-MB-435 = tested on: MDA-MB-435
Malme-3M = tested on: Malme-3M
SK-MEL-5 = tested on: SK-MEL-5

With `CCN1CCN(c2nc3ccccc3c3c2CCOc2ccccc2-3)CC1` the GI50 (M14) was 18.5 µM (inactive), the GI50 (IGROV-1) was 22.2 µM (inactive) and the GI50 (HOP-62) was 46.7 µM (inactive). The GI50 (EKVX) was > 100 µM (inactive), the GI50 (A549) was 45.8 µM (inactive) and the GI50 (BT-549) was > 100 µM (inactive). For the same molecule, the GI50 (SK-OV-3) was > 47.8 µM (inactive), the GI50 (T47D) was 35.5 µM (inactive) and the GI50 (NCI-H226) was > 47.1 µM (inactive). The GI50 (COLO 205) was 17.4 µM (inactive), the GI50 (OVCAR-3) was > 69 µM (inactive) and the GI50 (HL-60) was 1.05 µM (active). The GI50 (TK-10) was 39.5 µM (inactive), the GI50 (SR) was 2.85 µM (inactive) and the GI50 (MDA-N) was 25.7 µM (inactive). For the same molecule, the GI50 (UO-31) was 24.6 µM (inactive), the GI50 (UACC-62) was 17.7 µM (inactive) and the GI50 (MDA-MB-435) was 24.9 µM (inactive). The GI50 (Malme-3M) was 17.2 µM (inactive) and the GI50 (SK-MEL-5) was 15 µM (inactive).
In the case of `COC(=O)C1SC(N(C)c2ccccc2)=NC12c1ccccc1Nc1ccccc12` (stereo not given), the GI50 (M14) is reported as 19.5 µM (inactive), the GI50 (IGROV-1) is reported as 14.2 µM (inactive) and the GI50 (HOP-62) is reported as 33.8 µM (inactive). The GI50 (EKVX) was 22.8 µM (inactive), the GI50 (A549) was 20.3 µM (inactive) and the GI50 (BT-549) was 15.9 µM (inactive). For the same molecule, the GI50 (SK-OV-3) was 39.8 µM (inactive), the GI50 (T47D) was 15.7 µM (inactive) and the GI50 (NCI-H226) was 20.7 µM (inactive). For the same molecule, the GI50 (COLO 205) was 14.5 µM (inactive), the GI50 (OVCAR-3) was 11 µM (inactive) and the GI50 (HL-60) was 12.7 µM (inactive). For the same molecule, the GI50 (TK-10) was 29.8 µM (inactive), the GI50 (SR) was 15.3 µM (inactive) and the GI50 (MDA-N) was 23.1 µM (inactive). The GI50 (UO-31) was 22.5 µM (inactive), the GI50 (UACC-62) was 13.6 µM (inactive) and the GI50 (MDA-MB-435) was 17.6 µM (inactive). The GI50 (Malme-3M) was 15.8 µM (inactive) and the GI50 (SK-MEL-5) was 12.9 µM (inactive).
With `C1CN2CCNCCN(CCN1)CC2` the GI50 (M14) was > 100 µM (inactive), the GI50 (IGROV-1) was > 100 µM (inactive) and the GI50 (HOP-62) was > 100 µM (inactive). For the same molecule, the GI50 (EKVX) was > 100 µM (inactive), the GI50 (A549) was > 100 µM (inactive) and the GI50 (BT-549) was > 100 µM (inactive). For the same molecule, the GI50 (SK-OV-3) was > 100 µM (inactive), the GI50 (T47D) was > 100 µM (inactive) and the GI50 (NCI-H226) was > 100 µM (inactive). For the same molecule, the GI50 (COLO 205) was > 100 µM (inactive), the GI50 (OVCAR-3) was > 100 µM (inactive) and the GI50 (HL-60) was 20.9 µM (inactive). The GI50 (TK-10) was > 100 µM (inactive), the GI50 (SR) was > 100 µM (inactive) and the GI50 (MDA-N) was > 100 µM (inactive). For the same molecule, the GI50 (UO-31) was > 100 µM (inactive), the GI50 (UACC-62) was > 100 µM (inactive) and the GI50 (MDA-MB-435) was > 100 µM (inactive). The GI50 (Malme-3M) was > 100 µM (inactive) and the GI50 (SK-MEL-5) was > 100 µM (inactive).
In the case of `O=C(CNc1ccc(Cl)cc1Cl)Nn1c(-c2ccccc2)nc2ccccc2c1=O`, the GI50 (M14) is reported as 13.7 µM (inactive), the GI50 (IGROV-1) is reported as 15.2 µM (inactive) and the GI50 (HOP-62) is reported as > 10 µM (inactive). For the same molecule, the GI50 (EKVX) was 19.2 µM (inactive), the GI50 (A549) was 30.5 µM (inactive) and the GI50 (BT-549) was 16.3 µM (inactive). For the same molecule, the GI50 (SK-OV-3) was 28.2 µM (inactive), the GI50 (T47D) was 14.6 µM (inactive) and the GI50 (NCI-H226) was 33.8 µM (inactive). The GI50 (COLO 205) was 11.1 µM (inactive), the GI50 (OVCAR-3) was 17 µM (inactive) and the GI50 (HL-60) was 20 µM (inactive). The GI50 (TK-10) was 19.5 µM (inactive), the GI50 (SR) was 13.9 µM (inactive) and the GI50 (MDA-N) was 15.9 µM (inactive). For the same molecule, the GI50 (UO-31) was 22.4 µM (inactive), the GI50 (UACC-62) was 3.34 µM (inactive) and the GI50 (MDA-MB-435) was 14.9 µM (inactive). For the same molecule, the GI50 (Malme-3M) was 18.2 µM (inactive) and the GI50 (SK-MEL-5) was 5.94 µM (inactive).
For `Cn1c(=O)c2c(nc3n(C)c(=O)c4ccccc4n23)n(C)c1=O`, the GI50 (M14) was > 96.6 µM (inactive), the GI50 (IGROV-1) was > 95.9 µM (inactive) and the GI50 (HOP-62) was 21 µM (inactive). For the same molecule, the GI50 (EKVX) was > 100 µM (inactive), the GI50 (A549) was 9.98 µM (inactive) and the GI50 (BT-549) was > 80.4 µM (inactive). For the same molecule, the GI50 (SK-OV-3) was 37.8 µM (inactive), the GI50 (T47D) was > 71 µM (inactive) and the GI50 (NCI-H226) was 30 µM (inactive). The GI50 (COLO 205) was > 93.5 µM (inactive), the GI50 (OVCAR-3) was > 100 µM (inactive) and the GI50 (HL-60) was 24 µM (inactive). For the same molecule, the GI50 (TK-10) was > 100 µM (inactive), the GI50 (SR) was 3.67 µM (inactive) and the GI50 (MDA-N) was > 100 µM (inactive). The GI50 (UO-31) was 39.1 µM (inactive), the GI50 (UACC-62) was 28.9 µM (inactive) and the GI50 (MDA-MB-435) was > 100 µM (inactive). For the same molecule, the GI50 (Malme-3M) was > 49.3 µM (inactive) and the GI50 (SK-MEL-5) was 27.8 µM (inactive).
